The target of one data set is desmolase. Nature of the data set: inhibition of cholesterol side chain cleavage (SCC) activity (desmolase). Format: biochemical. As to conditions: mitochondrial fraction from human placenta or bovine adrenals, 37° C., 30 min; read-out: DESMOLASE IC-50.
The nature of data set [1]: acute toxicity, LD50, oral, mice. As to conditions: mouse, in vivo, young adult female NMRI-Stmin mice. How it is done:
Acute toxicity, LD50, was determined by using young adult female mice of NMRI-Stmin. The administration of the test compounds was oral.

The next data set addresses T1, human aromatase (Homo sapiens, UniProt P11511).
T1 construct: The enzyme was prepared from human placenta, which is rich of the enzyme; from tissue; host or cells: human placenta, microsomal fraction (100000×g precipitate), not further purified
T1 sequence (P11511 1-503): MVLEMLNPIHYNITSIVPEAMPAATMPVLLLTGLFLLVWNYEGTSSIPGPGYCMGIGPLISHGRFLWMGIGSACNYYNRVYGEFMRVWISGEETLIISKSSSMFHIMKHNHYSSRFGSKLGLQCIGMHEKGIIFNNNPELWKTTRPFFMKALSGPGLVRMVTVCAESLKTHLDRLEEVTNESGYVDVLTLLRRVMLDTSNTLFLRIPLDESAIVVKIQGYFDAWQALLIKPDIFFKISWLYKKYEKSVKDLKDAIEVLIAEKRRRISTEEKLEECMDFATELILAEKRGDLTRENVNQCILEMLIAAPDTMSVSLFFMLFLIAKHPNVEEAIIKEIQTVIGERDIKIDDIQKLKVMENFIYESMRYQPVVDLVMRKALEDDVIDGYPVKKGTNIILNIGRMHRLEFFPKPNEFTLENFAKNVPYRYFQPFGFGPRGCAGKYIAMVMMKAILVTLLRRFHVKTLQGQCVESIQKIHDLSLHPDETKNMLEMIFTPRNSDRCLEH
As to the kind of experiment: in vitro inhibition of aromatase (human placental microsomes, 3H2O release). As to conditions: 37° C., 40 min, read-out: AROMATASE IC-50 (converted). The class given is biochemical.

We go through 17 molecules from US5559141A, “Selective aromatase inhibiting 4(5)-imidazoles” (Orion-yhtyma Oy, priority 1991, dated 1996).

Each structure is given as a SMILES string.

Protocol for desmolase: Incubations were carried out in 1,5 ml Eppendorf plastic tubes, and an Eppendorf shaker, centrifuge and incubator were used as a unit. […] Controls contained all the above substances but the enzyme preparation was inactivated prior to the incubation by the addition of 900 μof methanol. The mitochondrial fraction (1 mg protein) from human placenta or bovine adrenals was used as a source of enzyme. After 30 min incubation at 37° C., the reaction was terminated by the addition of 900 μl of methanol; 1500 dpm of marker ^14 C-4-pregnenolone was added to each incubate and the tubes were vigorously shaken. […] The column was washed with one ml of 75% methanol and then with 3 ml of 80% methanol. The 80% methanol eluate was run into the counting vial and 10 ml of scintillation liquid was added. Radioactivity was counted using a double-label program on a liquid scintillation counter (LKB RackBeta). Typical activities for placental and bovine adrenal enzyme preparation were 0,5-3 and 50-100 pmol pregnenolone formed/mg protein/min,respectively.
In inhibition experiments, the substance (final concentration range from 1 to 1000 μM) was added into incubation mixture in a volume of 10-20 μl, usually as methanol or ethanol solution. The same volume of the solute was added into control incubation vial.
Protocol for human aromatase: Human aromatase enzyme was used. The enzyme was prepared from human placenta, which is rich of the enzyme. Microsomal fraction (100000×g precipitate) was prepared by centrifugation. The enzyme preparation was used without further purification. […] The incubation was camed out at 37° C. for 40 min. Aromatization of 1,2[^3 H]-androstene-3,17-dione results in the production of ^3 H2 O. The tritiated water and the tritiated substrate are easily separated by a Sep-Pak™ minicolumn, which absorbs the steroid but allows free water elution. Radioactivity was counted by a liquid scintillation counter. Aromatase inhibition was evaluated by comparing the ^3 H2 O-radioactivity of inhibitor treated samples to controls containing no inhibitor. IC-50 values were calculated as concentrations which inhibited the enzyme activity 50%.

A word on the LD50: it is the dose at which mortality reaches 50%. Low values mean a more toxic substance, high ones a less toxic substance. Regarding `N#Cc1ccc(C(CCc2c[nH]cn2)c2ccc(F)cc2)cc1` (stereo not shown) [Compound 3a, 4-[3-(4-cyanophenyl)-3-(4-fluorophenyl)propyl]-1H-imidazole], the IC50 at desmolase was found to be 43 µM. In addition, the LD50 in data set [1] is 210 mg/kg.

Consider `COc1ccc(C(CCc2c[nH]cn2)c2ccc(C#N)cc2)cc1` (stereo not shown) [Compound 10a, 4-[3-(4-cyanophenyl)-3-(4-methoxyphenyl)propyl]-1H-imidazole], for which the IC50 on desmolase was 33 µM.

Regarding `N#Cc1ccc(C(=CCc2c[nH]cn2)c2ccc(C#N)cc2)cc1` [Compound 8a, 4-[3,3-bis(4-cyanophenyl)-2-propenyl]-1H-imidazole], the values for the IC50 at human aromatase and on desmolase were 970 nM and 33 µM, respectively.

`N#Cc1ccc(CC=C(c2ccc(F)cc2)c2c[nH]cn2)cc1` [Compound 8b, 4-[3-(4-cyanophenyl)-1-(4-fluorophenyl)-1-propenyl]-1H-imidazole]: the IC50 at human aromatase was 1000 nM.

As for `N#Cc1ccc(C(CCc2c[nH]cn2)c2ccc(C#N)cc2)cc1` [Compound 2a, 4-[3,3-bis(4-cyanophenyl)propyl]-1H-imidazole], the IC50 on desmolase turned out to be 36 µM.

On to `N#Cc1ccc(C(CCCc2ccc(F)cc2)c2c[nH]cn2)cc1` (stereo not shown) [Compound 2b, 4-[1-(4-cyanophenyl)-4-(4-fluorophenyl)butyl]-1H-imidazole], for which, on desmolase, the IC50 is 20 µM.

`N#Cc1ccc(C(=CCc2c[nH]cn2)c2ccc(F)cc2)cc1` [Compound 4a, 4-[3-(4-cyanophenyl)-3-(4-fluorophenyl)-2-propenyl]-1H-imidazole]: the IC50 at human aromatase is 650 nM; at desmolase it was 62 µM.

Regarding `N#Cc1ccc(C(CCCc2ccccc2)c2c[nH]cn2)cc1` (stereo not shown) [Compound 1b, 4-[1-(4-cyanophenyl)-4-phenylbutyl]-1H-imidazole], on desmolase, the IC50 was found to be 12 µM.

As for `N#Cc1ccc(C(=CCCc2ccc(F)cc2)c2c[nH]cn2)cc1` (single isomer, unassigned; isomer a) [Compound 4b, 4-[1-(4-cyanophenyl)-4-(4-fluorophenyl)-1-butenyl]-1H-imidazole, isomer a], at desmolase, the IC50 was 33 µM.

In the case of `N#Cc1ccc(C(=CCCc2ccc(F)cc2)c2c[nH]cn2)cc1` [Compound 3b, 4-[1-(4-cyanophenyl)-4-(4-fluorophenyl)-1-butenyl)-1H-imidazole], on desmolase, the IC50 is 26 µM.

For the molecule `N#Cc1ccc(C(=CCCc2ccc(F)cc2)c2c[nH]cn2)cc1` (single isomer, unassigned; isomer b) [Compound 5b, 4-[1-(4-cyanophenyl)-4-(4-fluorophenyl)-1-butenyl]-1H-imidazole, isomer b], the IC50 at desmolase is above 1000 µM.

`N#Cc1ccc(C(=CCc2ccc(F)cc2)c2c[nH]cn2)cc1` (single isomer, unassigned; isomer a) [Compound 6b, 4-[1-(4-cyanophenyl)-3-(4-fluorophenyl)-1-propenyl]-1H-imidazole, isomer a]: at desmolase, the IC50 was 36 µM. The LD50 in data set [1] is above 400 mg/kg.

Turning to `N#Cc1ccc(C(CCc2c[nH]cn2)c2ccccc2)cc1` (stereo not shown) [Compound 1a, 4-[3-(4-cyanophenyl)-3-phenylpropyl]-1H-imidazole], on desmolase, the IC50 came out at 14 µM.

Turning to `N#Cc1ccc(C(CCc2c[nH]cn2)c2ccc(C(F)(F)F)cc2)cc1` (stereo not shown) [Compound 9a, 4-[3-(4-cyanophenyl)-3-(4-trifluoromethylphenyl)propyl]-1H-imidazole], the IC50 at desmolase was determined as 64 µM.

As to `N#Cc1ccc(C(CCCc2cncn2Cc2ccccc2)c2ccc(C#N)cc2)cc1` [Compound 7a, 1-benzyl-5-[4,4-bis(4-cyanophenyl)butyl]-1H-imidazole], the figures for the IC50 at human aromatase and at desmolase were 5000 nM and 22 µM, respectively.

As for `N#Cc1ccc(C(CCCc2c[nH]cn2)c2ccc(C#N)cc2)cc1` [Compound 6a, 4-[4,4-bis(4-cyanophenyl)butyl]-1H-imidazole], the IC50 at desmolase amounted to 47 µM.

As to `N#Cc1ccc(C(=CCc2cncn2Cc2ccccc2)c2ccc(C#N)cc2)cc1` [Compound 5a, 1-benzyl-5-[3,3-bis(4-cyanophenyl)-2-propenyl]-1H-imidazole], at human aromatase, the IC50 was 3200 nM.
